Laboratory results taken from patent US12590100B2, “Tetrahydro-spiroindoline-pyrrolopyrrole-triones inhibitors of the NRF2-β-TrCP interaction for use in the treatment of fatty liver disease” (Universidad Autonoma De Madrid, priority 2021, dated 2026).

Assays:
Type in all cases: cell-based, mouse
NRF2 [1] = assay: NRF2/HO-1 induction in Keap1−/− versus Keap1+/+ MEFs; conditions: PHAR 10 μM, 8 h
Experimental: FIG. 5. PHAR-mediated NRF2 activation is independent of KEAP1 and is responsible for the increase in the expression of its targets. (A-D) Serum-deprived MEFs originating from wild-type (WT) or KEAP1 null (Keap1−/−) mice were treated with 10 μM of PHAR for the indicated times. 0.1% DMSO was used as a vehicle. A), representative immunoblots of NRF2, HO1, KEAP1, LAMINB, and GAPDH as loading controls. B) and C), densitometric analysis of NRF2 and HO1 protein levels of the representative immunoblots of (A), expressed as a ratio of NRF2/LAMINB or HO1/GAPDH. The data is depicted as means±SEM (n=3). Statistical analysis was performed with two-way ANOVA followed by the Bonferroni test to check inter-group differences. D), the mRNA levels of Hmox-1, Nqo1, Aox1, Gc1c, and Gc1m were determined after 8 h of 10 μM PHAR by means of qRT-PCR and normalized by means of average Gapdh, Tbp, and β-actin. The data is depicted as mean±SEM (n=3). […] F) and G), densitometric analysis of NRF2 and HO1 protein levels of the representative immunoblots of (E), expressed as a ratio of NRF2/LAMINB or HO1/GAPDH. […] H), the mRNA levels of Hmox-1, Nqo1, Aox1, Gclc, and Gclm were determined after 8 h of 10 μM PHAR by means of qRT-PCR and normalized by means of average Gapdh, Tbp, and β-actin. […]

NRF2 [2] = assay: HO-1 induction in Nrf2−/− versus Nrf2+/+ MEFs
Experimental: FIG. 5. PHAR-mediated NRF2 activation is independent of KEAP1 and is responsible for the increase in the expression of its targets. (A-D) Serum-deprived MEFs originating from wild-type (WT) or KEAP1 null (Keap1−/−) mice were treated with 10 μM of PHAR for the indicated times. 0.1% DMSO was used as a vehicle. A), representative immunoblots of NRF2, HO1, KEAP1, LAMINB, and GAPDH as loading controls. B) and C), densitometric analysis of NRF2 and HO1 protein levels of the representative immunoblots of (A), expressed as a ratio of NRF2/LAMINB or HO1/GAPDH. The data is depicted as means±SEM (n=3). Statistical analysis was performed with two-way ANOVA followed by the Bonferroni test to check inter-group differences. D), the mRNA levels of Hmox-1, Nqo1, Aox1, Gc1c, and Gc1m were determined after 8 h of 10 μM PHAR by means of qRT-PCR and normalized by means of average Gapdh, Tbp, and β-actin. The data is depicted as mean±SEM (n=3). Statistical analysis was performed with two-way ANOVA followed by the Bonferroni test to check inter-group differences. *p<0.05; **p<0.01; ***p<0.001 vs. 0 of MEF-WT. (E-H), Serum-deprived MEFs from wild-type (WT) or NRF2 null (Nrf2−/−) mice were subjected to 10 μM of PHAR for the indicated times. 0.1% DMSO was used as a vehicle. E), representative immunoblots of NRF2, HO1, KEAP1, LAMINB, and GAPDH as loading controls. F) and G), densitometric analysis of NRF2 and HO1 protein levels of the representative immunoblots of (E), expressed as a ratio of NRF2/LAMINB or HO1/GAPDH. […] H), the mRNA levels of Hmox-1, Nqo1, Aox1, Gclc, and Gclm were determined after 8 h of 10 μM PHAR by means of qRT-PCR and normalized by means of average Gapdh, Tbp, and β-actin. […]
From a viewpoint of biopharmaceutical usefulness, it is important to determine if PHAR acts on KEAP1/NRF2 interaction, or if it represents, in contrast, a novel approach directed specifically at β-TrCP/NRF2 interaction. […] As an additional control, the HO-1 levels in MEFs originating from NRF2 knock-out (Nrf2^−/−) and wild-type (Nrf2^+/+) mice from the same litter were analyzed by immunoblot. […]

Raw264.7 cells = assay: Inflammatory response in LPS-stimulated Raw264.7 cells; conditions: Raw264.7, PHAR 10 μM 8 h pretreatment
Experimental: FIG. 7. […] Serum-deprived Raw264.7 cells were pretreated with 10 μM of PHAR for 8 h. 0.1% DMSO was used as a vehicle. After that period of time, the cells were treated with 100 ng/ml of LPS for the indicated times. A), representative immunoblots of NRF2, HO1, p65, pre-IL1β, COX2, NOS2, and GAPDH as a loading control. The black arrow tip marks the specific band of p65 and NOS2. B), densitometric analysis of HO1 and NRF2 protein levels of the representative immunoblots of (A), expressed as a ratio of protein/GAPDH levels. The data is depicted as means±SEM (n=3). Statistical analysis was performed with two-way ANOVA followed by the Bonferroni test to compare inter-group differences. ***p<0.001 vs LPS. C), Densitometric analysis of pre-IL1β, COX2, and NOS2 protein levels of the representative immunoblots of (A), expressed as a ratio of protein/GAPDH levels. The data is depicted as means±SEM (n=3). Statistical analysis was performed with two-way ANOVA followed by the Bonferroni test to compare inter-group differences. ***p<0.001 vs. LPS. D) and E), the mRNA levels of Il1β, Cox2, Nos2, Il6, and Tnfα were determined by means of qRT-PCR and normalized by means of average Gapdh, Tbp, and β-actin. The data is depicted as mean±SEM (n=3). Statistical analysis was performed with two-way ANOVA followed by the Bonferroni test to check inter-group differences. ***p<0.001 vs. LPS. […] The cells were then stimulated with LPS (100 ng/ml, 1, 2, or 4 h) to trigger an inflammatory response.

O=C1[C@@H]2[C@H](Cc3c[nH]c4ccccc34)N[C@]3(C(=O)Nc4ccc(Cl)cc43)[C@@H]2C(=O)N1c1ccc2c(c1)OCCO2 [PHAR]
mRNA levels of other NRF2 targets in Keap1−/− compared with Keap1+/+ MEFs (NRF2 [1]): The same result was obtained
HO-1 increase in MEFs from Nrf2−/− mice (NRF2 [2]; PHAR 10 μM, 2, 4, 8 h): not observed
HO-1 levels in MEFs from Nrf2+/+ mice (NRF2 [2]; PHAR 10 μM, 2, 4, 8 h): significant increase in HO-1
mRNA levels of NRF2 targets in Nrf2+/+ and Nrf2−/− MEFs (NRF2 [2]; PHAR 10 μM, 8 h): The same result was obtained
Il6 and Tnfa induction (Raw264.7 cells; LPS 100 ng/ml): significantly milder induction
NRF2 and HO-1 levels (Raw264.7 cells; LPS 100 ng/ml): increased NRF2 and HO-1 levels
inflammatory parameters by immunoblot (pre-IL1β, COX2, NOS2) or mRNA (Il1β, Cox2, Nos2) (Raw264.7 cells; LPS 100 ng/ml 4 h): mitigated the increase in inflammatory parameters
